Measured values as given in patent US20100310579A1, “METHOD FOR INHIBITING ANGIOGENESIS OR FOR TREATMENT OF CANCER” (Faron Ventures Oy, priority 2007, published 2010).

Columns and labels:
Type in all cases: in vivo
[1] = system: Luciferase-containing B16 melanoma cells; experiment: B16 melanoma tumor growth in mice (bioluminescence imaging, tumor volume)
Experimental: In the melanoma model, age- and sex-matched VAP-1 deficient and wt C57/B16 mice were used (Stolen, C. M., F. Marttila-Ichihara, K. Koskinen, G. G. Yegutkin, R. Turja, P. Bono, M. Skurnik, A. Hanninen, S. Jalkanen, and M. Salmi. 2005. Immunity 22:105-115). Luciferase-containing B16 melanoma cells were purchased from Xenogen. Tumor cells (4×10^5 in 200 μl) were injected subcutaneously into the flanks of isoflurane anesthesized mice. Immediately thereafter, a substrate for the luciferase (D-luciferin sodium salt, Synchem, Kassel, Germany; 150 mg/kg i.p.) was injected, and 10 min later the light generated was recorded using bioluminescence imaging (IVIS 50 workstation, Xenogen). The signal intensities were quantified as the photon counts using the Living Image software (Xenogen). […] The growth of tumors was then followed for 10 d, and at the indicated time points, the animals were re-subjected to the bioluminescence imaging. The diameter of the tumor was also measured using an electronic caliber (Mitutoyo, Japan). The volume of the tumor was approximated using the formula: 0.5×(longest diameter)×(shortest diameter). In the lymphoma model, EL-4 cells were injected into the abdominal area (10×10^6 cells/mouse in 200 μl of RPMI1640. tumor growth was followed using the electronic caliber.
(§1) The tumor model was established as above. The animals were treated every second day with anti-VAP-1 mAb (7-106+7-88, 100 μg each/mouse) or with a negative control mAb HB151 (200 μg/mouse, ip) (Merinen, M., H. Irjala, M. Salmi, I. Jaakkola, A. Hanninen, and S. Jalkanen. 2005. e. Am. J. Pathol. 166:793-800). The antibodies were produced in serum and BSA-free medium, concentrated, and dialyzed against PBS. Another group of mice were treated with the VAP-1 inhibitor SZE 5302 (50 mg/kg, ip, daily) or with the vehicle (saline) (Koskinen, K., P. J. Vainio, D. J. Smith, M. Pihlavisto, S. Yla-Herttuala, S. Jalkanen, and M. Salmi. 2004. Blood 103:3388-3395). The growth of the tumor was then followed using bioluminescence imaging or volume measurements as described above.

EL-4 lymphoma cells = experiment: EL-4 lymphoma growth in mice (tumor volume); details: wt mice, s.c. EL-4 lymphoma, treated vs control, FIG. 5b
Experimental: FIG. 5. Defective migration of myeloid-derived suppressor cells (MDSC), angiogenesis and growth of lymphoma in VAP-1 deficient mice (a, b). EL-4 lymphoma cells were injected subcutaneously into (a) wt and VAP-1 deficient mice and (b) control and SZE5302 treated mice, and the growth of the lymphomas (volume) was measured kinetically. VAP-1 activity in control and SZE5302 treated mice was measured using enzyme assay (c) Immunohistochemical stainings of (d) VAP-1 and (e) CD31 expression in tumor vessels in EL-4 lymphoma grown in wt and VAP-1 −/− mice. Some positive vessels are pointed out by arrows. Lymphoma cells also express low levels of CD31. Bar 50 μm. The numbers of (f) CD31 positive vessels and (g) CD11b positive cells was determined using immunohistochemistry. […]
In the melanoma model, age- and sex-matched VAP-1 deficient and wt C57/B16 mice were used (Stolen, C. M., F. Marttila-Ichihara, K. Koskinen, G. G. Yegutkin, R. Turja, P. Bono, M. Skurnik, A. Hanninen, S. Jalkanen, and M. Salmi. 2005. Immunity 22:105-115). […] Immediately thereafter, a substrate for the luciferase (D-luciferin sodium salt, Synchem, Kassel, Germany; 150 mg/kg i.p.) was injected, and 10 min later the light generated was recorded using bioluminescence imaging (IVIS 50 workstation, Xenogen). The signal intensities were quantified as the photon counts using the Living Image software (Xenogen). […]

[2] = system: CD31-positive vessels in melanoma tumors; experiment: CD31-positive vessels in melanoma tumors (immunohistochemistry, neoangiogenesis); details: melanoma tumors resected d10, treated vs control mice, FIG. 3
Experimental: as §1
At the end of the experiment, tumors were excised from the mice and processed for immunohistochemical staining. Anti-mouse CD31 mAb (MEC13.3, IHC formula, 1:300 dilution; Pharmingen) and a negative control mAb (9B5) were used for indirect immunoperoxidase stainings. The sections were counterstained with hematoxylin-eosin, and mounted in Depex. In certain cases, formalin-fixed, paraffin embedded sections were stained with HE. The CD31-positive vessels or vessels in HE-stained sections were enumerated by counting the number of vessels in the whole tumor area using a 400× magnification. […]

[3] = system: myeloid-derived suppressor cells (MDSC) in melanoma tumors; experiment: CD11b-positive myeloid-derived suppressor cells in melanoma tumors (microscopic counting); details: wt mice treated with inhibitor vs vehicle, FIG. 6
Source text: FIG. 6. VAP-1 selectively supports recruitment of pro-angiogenic myeloid-derived suppressor cells in melanoma tumors. CD11b-positive cells were quantified by microscopic counting in wt and VAP-1 deficient mice and in wt treated with vehicle or SZE5302 inhibitor. Data (mean±SEM) are from 9 mice per group, ** p<0.01.
At the end of the experiment, tumors were excised from the mice and processed for immunohistochemical staining. Anti-mouse CD31 mAb (MEC13.3, IHC formula, 1:300 dilution; Pharmingen) and a negative control mAb (9B5) were used for indirect immunoperoxidase stainings. The sections were counterstained with hematoxylin-eosin, and mounted in Depex. In certain cases, formalin-fixed, paraffin embedded sections were stained with HE. The CD31-positive vessels or vessels in HE-stained sections were enumerated by counting the number of vessels in the whole tumor area using a 400× magnification. Sections were also stained with CD11b and Gr-1 antibodies.

CN(N)[C@H]1Cc2ccccc2[C@@H]1O [SZE5302]
tumor volume (physical measurement) ([1]; day 7, wt mice, B16 melanoma, 50 mg/kg ip daily): significant reduction | melanoma size ([1]; day 10, wt mice, B16 melanoma, 50 mg/kg ip daily): clearly smaller | tumor growth ([1]; wt mice, s.c. B16 melanoma, 50 mg/kg ip daily vs vehicle, FIG. 2B): significant decrease in tumor growth | tumor growth (lymphoma volume) (EL-4 lymphoma cells): strongly inhibited tumor growth | number of CD31+ positive (new) vessels in the tumor [2]: significantly fewer | number of MDSC in the melanomas [3]: strongly reduced
